{
  "source": "patent US8518883B2",
  "about": "“Method of reducing deleterious effects of ischemia by administration of a thrombopoietin receptor ligand” (MCW Research Foundation, Inc., priority 2006, dated 2013)",
  "key": {"[1]": {"test_system": "in vitro rat hearts", "assay": "TUNEL assay of apoptosis in isolated rat hearts after global ischemia/reperfusion", "method": "Hearts from Sprague Dawley rats perfused continuously with bicarbonate buffer for 245 minutes served as non-ischemic controls (FIG. 5). Hearts aerobically perfused for 35 minutes and subjected to 25 minutes of global ischemia followed by 3 hours reperfusion served as the ischemia-reperfusion control group. Hearts aerobically perfused with buffer for 20 minutes and then perfused with Tpo (1 ng/ml) for 15 minutes before ischemia and reperfusion served as a Tpo-treated group. Each heart at the end of perfusion was snap frozen in liquid nitrogen. Four frozen sections (10 micron thick) from each heart (72 sections total) were processed for TUNEL assay according to the manufacturers protocol (Roche). The slides were examined under fluorescent microscope (400× magnification, excitation 490 nm, and emission 515 nm). Twenty-two random high-power fields from each heart sample were chosen and blindly quantified. TUNEL results are presented as % (positive nuclei per field/total nuclei per field×100%)."}, "[2]": {"test_system": "Sprague Dawley rats", "assay": "Coronary artery ligation model, regional myocardial ischemia in vivo, Tpo given 15 min prior to ischemia", "set-up": "species or system rat", "method": "Animals used in this study were adult male Sprague Dawley rats (200-350 g, generally 300 g). Animals were housed under standard conditions and allowed to feed ad lib. The Animal Care and Use Committee of the Medical College of Wisconsin approved all procedures performed in accordance with the regulations adopted by the National Institutes of Health.\n(§1) Rats were anesthetized with sodium pentobarbital (50 mg/kg i.p.). Heparin was administered (150 U/kg i.p.) to prevent the formation of a thrombus in the coronary vasculature. A myocardial infarction was produced via the ligation of the left main artery using 6-0 prolene suture (See, e.g., Clements-Jewery, et al., Br. J. Pharmacol. 135:807-815, 2002; Farkas, et al., J. Cardiovasc. Pharmacol. 39:412-424, 2002). The left main coronary artery was identified and ligated with a 5-0 Prolene suture threaded through a polyethylene tube to act as an occluder. A control group included sham operated hearts in which only a suture was passed around the left main coronary artery was performed.\nAnimals were treated with Tpo (0.005-0.5 micrograms/kg) administered intravenously for 15 minutes prior to the onset of ischemia. Regional ischemia and reperfusion were induced by tightening the occluder and by releasing it. Hearts were then subjected to 30 minutes regional ischemia followed by 3 hours reperfusion. Recovery of left ventricular developed pressure and infarct size/area at risk at 3 hours reperfusion were used to assess resistance to myocardial ischemia. For characterization of infarction size, hearts were perfused with 10 ml bicarbonate buffer containing triphenyltetrazolium chloride (SIGMA) at 37° C.\nThe heart was sectioned in 2 mm segments from apex to atrio-ventricular groove in a transverse fashion. Each segment was recorded and placed in formalin. After twenty-four (24) hours, the specimen was digitally photographed in a camera mount to normalize specimen-to-lens distance. Each photograph was then appended to Adobe Photoshop (Adobe™) to measure pixel density of infarcted versus non-infarcted areas. The percentage of infarction of each slide was expressed as a percentage of the entire area of the heart.\nThere was no significant difference in body weight, heart weight or risk zone size between groups. […] Significant differences were found for mean arterial pressure and rate pressure for some groups when compared to sham. For each group, the area at risk compared to total left ventricle weight was calculated. There were no significant differences seen between groups (data not shown)."}, "[3]": {"test_system": "Sprague Dawley rats", "assay": "Coronary artery ligation model, delayed cardioprotection, Tpo given 24 hours before ischemia", "format": "in vivo, rat", "details": "Tpo 0.05 micrograms/kg 24 hours before 30 min regional ischemia, 3 hours reperfusion", "method": "Animals used in this study were adult male Sprague Dawley rats (200-350 g, generally 300 g). Animals were housed under standard conditions and allowed to feed ad lib.\nas §1, with “supra,” for “Br. J. Pharmacol. 135:807-815,”, “Farkas” for “Farkas,”, “supra,” for “J. Cardiovasc. Pharmacol. 39:412-424,”\nAnimals were treated with Tpo (0.05 micrograms/kg) administered intraperitoneally and the animals allowed to recover for 24 hours prior to the onset of ischemia. Regional ischemia and reperfusion were induced by tightening the occluder and by releasing it. Hearts were then subjected to 30 minutes regional ischemia followed by 3 hours reperfusion. […]\nThe heart was sectioned in 2 mm segments from apex to atrio-ventricular groove in a transverse fashion. Each segment was recorded and placed in formalin. […] The percentage of infarction of each slide was expressed as a percentage of the entire area of the heart."}, "[4]": {"test_system": "rats", "assay": "Platelet count and hematocrit after single Tpo treatment", "format": "in vivo, rat", "method": "Prior to treatment, platelet counts in untreated rats were 850±96 10^3/ul, and the hematocrit in untreated rats was 43.8±1.8%.\nFIG. 13A/B is a plot of additional data (mean±standard deviation, n+6 per group) that evaluated a single dose of Tpo (1.0 μg/kg i.v.) on platelet count and hematocrit. There was no effect."}, "[5]": {"test_system": "healthy individuals and those about to receive chemotherapy", "details": "human trials, Tpo doses of 1-5 μg/kg; cited from earlier work"}, "[6]": {"details": "15 min ISCHEMIA, Tpo 0.005 μg/kg i.v."}, "[7]": {"details": "15 min ISCHEMIA, Tpo 0.05 μg/kg i.v."}, "[8]": {"details": "15 min ISCHEMIA, Tpo 0.5 μg/kg i.v."}, "[9]": {"details": "3 hr REPERFUSION, Tpo 0.005 μg/kg i.v."}, "[10]": {"details": "3 hr REPERFUSION, Tpo 0.05 μg/kg i.v."}, "[11]": {"details": "3 hr REPERFUSION, Tpo 0.5 μg/kg i.v."}, "[12]": {"details": "single Tpo 0.05 μg/kg i.v., 14 day follow up"}, "[13]": {"details": "single Tpo 1.0 μg/kg i.v., 28 day follow up"}},
  "note": "“Also recorded” adds a separate entry of the source.",
  "data": [
    {"substance": "Thrombopoietin [Tpo]", "values": [
      {"measurement": "TUNEL-positive cells", "setting": "[1]; Tpo 1.0 ng/ml 15 min before 25 min global ischemia, 3 hours reperfusion, ischemia control 3.56±0.75%, non-ischemic 1.91±0.54%", "result": "1.94±0.55", "unit": "%"},
      {"measurement": "Apoptosis following ischemia and reperfusion", "setting": "[1]; Tpo 1.0 ng/ml prior to ischemia", "result": "reduced"},
      {"measurement": "Heart rate", "setting": "[2]; [6]", "result": "374 ± 12", "unit": "beats/min"},
      {"measurement": "Mean arterial pressure", "setting": "[2]; [6]", "result": "104 ± 11", "unit": "mmHg"},
      {"measurement": "Heart rate", "setting": "[2]; [7]", "result": "352 ± 11", "unit": "beats/min"},
      {"measurement": "Mean arterial pressure", "setting": "[2]; [7]", "result": "124 ± 11", "unit": "mmHg"},
      {"measurement": "Heart rate", "setting": "[2]; [8]", "result": "382 ± 13", "unit": "beats/min"},
      {"measurement": "Mean arterial pressure", "setting": "[2]; [8]", "result": "121 ± 13", "unit": "mmHg"},
      {"measurement": "Heart rate", "setting": "[2]; [9]", "result": "359 ± 13", "unit": "beats/min"},
      {"measurement": "Mean arterial pressure", "setting": "[2]; [9]", "result": "92 ± 7", "unit": "mmHg"},
      {"measurement": "Heart rate", "setting": "[2]; [10]", "result": "332 ± 11", "unit": "beats/min"},
      {"measurement": "Mean arterial pressure", "setting": "[2]; [10]", "result": "105 ± 11", "unit": "mmHg"},
      {"measurement": "Heart rate", "setting": "[2]; [11]", "result": "364 ± 13", "unit": "beats/min"},
      {"measurement": "Mean arterial pressure", "setting": "[2]; [11]", "result": "108 ± 16", "unit": "mmHg"},
      {"measurement": "Heart rate", "setting": "[2]; BASELINE, Tpo 0.005 μg/kg i.v.", "result": "386 ± 17", "unit": "beats/min"},
      {"measurement": "Mean arterial pressure", "setting": "[2]; BASELINE, Tpo 0.005 μg/kg i.v.", "result": "133 ± 13", "unit": "mmHg"},
      {"measurement": "Heart rate", "setting": "[2]; BASELINE, Tpo 0.05 μg/kg i.v.", "result": "342 ± 16", "unit": "beats/min"},
      {"measurement": "Mean arterial pressure", "setting": "[2]; BASELINE, Tpo 0.05 μg/kg i.v.", "result": "138 ± 6", "unit": "mmHg"},
      {"measurement": "Heart rate", "setting": "[2]; BASELINE, Tpo 0.5 μg/kg i.v.", "result": "371 ± 11", "unit": "beats/min"},
      {"measurement": "Mean arterial pressure", "setting": "[2]; BASELINE, Tpo 0.5 μg/kg i.v.", "result": "144 ± 6", "unit": "mmHg"},
      {"measurement": "Optimal concentration of Tpo that afforded maximum reduction of infarct size", "setting": "[2]; Tpo 0.005-0.5 μg/kg i.v. 15 min prior to ischemia", "result": 0.05, "unit": "µg/kg"},
      {"measurement": "Post ischemic myocardial infarct size", "setting": "[2]; Tpo i.v. 15 min prior to 30 min regional ischemia, 3 hours reperfusion, 'U' shaped dose dependence", "result": "decreased"},
      {"measurement": "Myocardial infarct size", "setting": "[3]", "result": "decrease"},
      {"measurement": "Hematocrit", "setting": "[4]; [12]", "result": "remained unchanged; also recorded: did not result in an increased"},
      {"measurement": "Platelet count", "setting": "[4]; [12]", "result": "remained unchanged; also recorded: did not result in an increased"},
      {"measurement": "Hematocrit", "setting": "[4]; [13]", "result": "no effect"},
      {"measurement": "Platelet count", "setting": "[4]; [13]", "result": "no effect"},
      {"measurement": "Increase of platelet production", "setting": "[5]", "result": "5-10 times"}
    ]}
  ]
}
